In patent publication US20050112573A1, “Method of detecting toxic substance” (priority 2001, published 2005):

Test system: yeast genes (level of expressed mRNA)
Assay: DNA chip analysis of expressed mRNA of yeast genes after 2 h culture with a toxic chemical substance
Format: cell-based, Saccharomyces cerevisiae S288C
Method: Yeast (Saccharomyces cerevtisiae S288C (α SUC2mal mel gap2 CUP1)) were cultured at 25° C. on YPD medium (yeast extract 1%, polypepton 2%, glucose 2%). One of toxic chemical substances was added to the cell at logarithmic growth phase, and the cell was further cultured for two hours. Cell was cultured without any chemical substance in the same condition, and was used as control. Concentrations of the chemical substances were defined to inhibit the growth of the yeast but not lead to death.
After the completion of cultivation, the culture was centrifuged to collect the cells. To the cells, sodium acetate buffer (50 mM sodium acetate, 10 mM EDTA, 1% SDS) was added, and the mixture was shaken at 65° C. for five minutes, followed by returning to room temperature, and obtaining the supernatant, which procedure was repeated two times. To the supernatant, ½ amount of a solution of phenol/chloroform was added, and the mixture was centrifuged to give a supernatant, which was added with an equal amount of chloroform, and the mixture was centrifuged to give a supernatant. To the supernatant, an equal amount of isopropanol containing 0.3 M sodium acetate was added, and the mixture was allowed to stand at room temperature for 30 minutes, after which the mixture was centrifuged to give a sediment of the whole RNAs. Seventy % ethanol was added to the sediment, and the mixture was again centrifuged to give a sediment, which was then dried and dissolved in water. mRNA was isolated from the whole RNAs as followings. In view of the fact that a poly A chain is attached to the 3′ terminus of mRNA, a polynucleotide having a poly T structure which was immobilized on the surface of latex beads was used to trap the mRNA, and then the mRNA was washed and eluted with spine column (Oligotex-dT30<Super>mRNA Purification Kit, Takara). Reverse transcription of the mRNA was conducted with a reverse transcriptase (Super Script II Reverse Transcriptase; catalogue No. 18064-014, GibcoBRL) using fluorescence-labeled nucleotides to give cDNAs that were introduced with Cy3-dUTP or Cy5-dUTP during the reverse transcription.
The labeled cDNAs were dissolved in TE buffer (10 mM Tris-HCl/1 mM EDTA, pH8.0), and the solution was dropped on the DNA chip containing the whole genes of yeast (DNA Chip Research Inc. Japan) so that the cDNAs were hybridized on the DNA chip at 65° C. for over 12 hours. The fluoresces intensity of the DNA chip was read with a scanner, and the ratio relative to the fluorescence intensity resulting from the absence of chemical substance was estimated as the following, which is shown in Tables 1 to 9: [formula]
In the Tables, “Intensity” indicated in the rightmost column is a value of the level of expressed mRNA of each gene in control cells as divided by the average level of the expressions of the whole genes.

CN(C)C(=S)SSC(=S)N(C)C [(10), Tetramethylthiuram disulfide]
The level of expressed mRNA in the presence of chemical substance/The level of expressed mRNA in the absence of chemical substance (yeast gene YAR010C): 1.1
The level of expressed mRNA in the presence of chemical substance/The level of expressed mRNA in the absence of chemical substance (yeast gene YBL005W-A): 1.5
The level of expressed mRNA in the presence of chemical substance/The level of expressed mRNA in the absence of chemical substance (yeast gene YBL041W): 2.6
The level of expressed mRNA in the presence of chemical substance/The level of expressed mRNA in the absence of chemical substance (yeast gene YBL043W): 14.7
The level of expressed mRNA in the presence of chemical substance/The level of expressed mRNA in the absence of chemical substance (yeast gene YBL078C): 15.2
The level of expressed mRNA in the presence of chemical substance/The level of expressed mRNA in the absence of chemical substance (yeast gene YBR214W): 3.5
The level of expressed mRNA in the presence of chemical substance/The level of expressed mRNA in the absence of chemical substance (yeast gene YCL020W): 2.4
The level of expressed mRNA in the presence of chemical substance/The level of expressed mRNA in the absence of chemical substance (yeast gene YCL027W): 16.3
The level of expressed mRNA in the presence of chemical substance/The level of expressed mRNA in the absence of chemical substance (yeast gene YCR004C): 2.1
The level of expressed mRNA in the presence of chemical substance/The level of expressed mRNA in the absence of chemical substance (yeast gene YCR071C): 1.2
The level of expressed mRNA in the presence of chemical substance/The level of expressed mRNA in the absence of chemical substance (yeast gene YCR088W): 0.9
The level of expressed mRNA in the presence of chemical substance/The level of expressed mRNA in the absence of chemical substance (yeast gene YDL008W): 3.0
The level of expressed mRNA in the presence of chemical substance/The level of expressed mRNA in the absence of chemical substance (yeast gene YDL238C): 2.7
The level of expressed mRNA in the presence of chemical substance/The level of expressed mRNA in the absence of chemical substance (yeast gene YDR055W): 2.4
The level of expressed mRNA in the presence of chemical substance/The level of expressed mRNA in the absence of chemical substance (yeast gene YDR084C): 0.6
The level of expressed mRNA in the presence of chemical substance/The level of expressed mRNA in the absence of chemical substance (yeast gene YDR085C): 2.3
The level of expressed mRNA in the presence of chemical substance/The level of expressed mRNA in the absence of chemical substance (yeast gene YDR104C): 2.7
The level of expressed mRNA in the presence of chemical substance/The level of expressed mRNA in the absence of chemical substance (yeast gene YDR115W): 1.0
The level of expressed mRNA in the presence of chemical substance/The level of expressed mRNA in the absence of chemical substance (yeast gene YDR259C): 1.8
The level of expressed mRNA in the presence of chemical substance/The level of expressed mRNA in the absence of chemical substance (yeast gene YDR315C): 1.6
The level of expressed mRNA in the presence of chemical substance/The level of expressed mRNA in the absence of chemical substance (yeast gene YDR358W): 3.2
The level of expressed mRNA in the presence of chemical substance/The level of expressed mRNA in the absence of chemical substance (yeast gene YDR388W): 0.9
The level of expressed mRNA in the presence of chemical substance/The level of expressed mRNA in the absence of chemical substance (yeast gene YDR432W): 0.8
The level of expressed mRNA in the presence of chemical substance/The level of expressed mRNA in the absence of chemical substance (yeast gene YDR481C): 1.6
The level of expressed mRNA in the presence of chemical substance/The level of expressed mRNA in the absence of chemical substance (yeast gene YDR510W): 2.5
The level of expressed mRNA in the presence of chemical substance/The level of expressed mRNA in the absence of chemical substance (yeast gene YEL042W): 0.3
The level of expressed mRNA in the presence of chemical substance/The level of expressed mRNA in the absence of chemical substance (yeast gene YEL066W): 2.4
The level of expressed mRNA in the presence of chemical substance/The level of expressed mRNA in the absence of chemical substance (yeast gene YER039C): 0.8
The level of expressed mRNA in the presence of chemical substance/The level of expressed mRNA in the absence of chemical substance (yeast gene YER107C): 0.5
The level of expressed mRNA in the presence of chemical substance/The level of expressed mRNA in the absence of chemical substance (yeast gene YER130C): 1.3
The level of expressed mRNA in the presence of chemical substance/The level of expressed mRNA in the absence of chemical substance (yeast gene YFL028C): 1.8
The level of expressed mRNA in the presence of chemical substance/The level of expressed mRNA in the absence of chemical substance (yeast gene YFL043C): 3.8
The level of expressed mRNA in the presence of chemical substance/The level of expressed mRNA in the absence of chemical substance (yeast gene YGL158W): 0.9
The level of expressed mRNA in the presence of chemical substance/The level of expressed mRNA in the absence of chemical substance (yeast gene YGL229C): 1.7
The level of expressed mRNA in the presence of chemical substance/The level of expressed mRNA in the absence of chemical substance (yeast gene YGR136W): 2.2
The level of expressed mRNA in the presence of chemical substance/The level of expressed mRNA in the absence of chemical substance (yeast gene YGR189C): 0.9
The level of expressed mRNA in the presence of chemical substance/The level of expressed mRNA in the absence of chemical substance (yeast gene YGR213C): 6.9
The level of expressed mRNA in the presence of chemical substance/The level of expressed mRNA in the absence of chemical substance (yeast gene YGR257C): 1.9
The level of expressed mRNA in the presence of chemical substance/The level of expressed mRNA in the absence of chemical substance (yeast gene YHR004C): 0.6
The level of expressed mRNA in the presence of chemical substance/The level of expressed mRNA in the absence of chemical substance (yeast gene YHR071W): 7.2
The level of expressed mRNA in the presence of chemical substance/The level of expressed mRNA in the absence of chemical substance (yeast gene YHR139C): 46.6
The level of expressed mRNA in the presence of chemical substance/The level of expressed mRNA in the absence of chemical substance (yeast gene YHR142W): 0.9
The level of expressed mRNA in the presence of chemical substance/The level of expressed mRNA in the absence of chemical substance (yeast gene YIL123W): 0.2
The level of expressed mRNA in the presence of chemical substance/The level of expressed mRNA in the absence of chemical substance (yeast gene YIL140W): 0.6
The level of expressed mRNA in the presence of chemical substance/The level of expressed mRNA in the absence of chemical substance (yeast gene YJL073W): 0.7
The level of expressed mRNA in the presence of chemical substance/The level of expressed mRNA in the absence of chemical substance (yeast gene YJL089W): 3.9
The level of expressed mRNA in the presence of chemical substance/The level of expressed mRNA in the absence of chemical substance (yeast gene YJL116C): 2.6
The level of expressed mRNA in the presence of chemical substance/The level of expressed mRNA in the absence of chemical substance (yeast gene YJR004C): 0.7
The level of expressed mRNA in the presence of chemical substance/The level of expressed mRNA in the absence of chemical substance (yeast gene YJR086W): 1.1
The level of expressed mRNA in the presence of chemical substance/The level of expressed mRNA in the absence of chemical substance (yeast gene YKL008C): 0.4
